ChEMBL document CHEMBL2424554, “Synthesis of new indazole derivatives as potential antioxidant agents” (Med Chem Res, 2013)

Experiments:
Format in all cases: functional
[1] = Antioxidant activity assessed as ascorbic acid equivalent antioxidant capacity per mg sample after 90 mins by phosphomolybdenum method
[2] = Antioxidant activity assessed as effective concentration for potassium ferric cyanide ion reducing power equivalent of 0.5 absorbance ellagic acid at 100 to 1000 ug/ml after 20 mins by FRAP assay
[3] = Antioxidant activity assessed as DPPH scavenging activity after 20 mins by spectrophotometry; set-up: concentration or dose not given beside the values

SMILES	Activity [1]	Activity [2]	Activity [3]
O=c1c2c([nH]n1-c1ccc([N+](=O)[O-])cc1[N+](=O)[O-])C=C(c1ccc(F)cc1)CC2c1ccc(Br)cc1 (stereo not drawn)	4.69 µM	0.76 mg/mL	2.34%
O=c1c2c([nH]n1-c1ccc([N+](=O)[O-])cc1)C=C(c1ccc(F)cc1)CC2c1ccccc1 (stereo not drawn)	0.69 µM	0.47 mg/mL	89.6%
O=c1c2c([nH]n1-c1ccc([N+](=O)[O-])cc1[N+](=O)[O-])C=C(c1ccc(F)cc1)CC2c1ccccc1 (stereo not drawn)	16.2 µM	3.26 mg/mL	4.21%
O=c1c2c([nH]n1-c1ccccc1)C=C(c1ccc(F)cc1)CC2c1ccccc1 (stereo not drawn)	3.95 µM	1.95 mg/mL	90.2%
N[C@@H](CCC(=O)N[C@@H](CS)C(=O)NCC(=O)O)C(=O)O			92.1%
O=c1[nH][nH]c2c1C(c1ccc(Br)cc1)CC(c1ccc(F)cc1)=C2 (stereo not drawn)	1.17 µM	1.14 mg/mL	16.2%
O=c1c2c([nH]n1-c1ccc([N+](=O)[O-])cc1)C=C(c1ccc(F)cc1)CC2c1ccc(Br)cc1 (stereo not drawn)	0.58 µM	0.64 mg/mL	85.3%
O=c1[nH][nH]c2c1C(c1ccccc1)CC(c1ccc(F)cc1)=C2 (stereo not drawn)	4.75 µM	0.63 mg/mL	19.8%
O=c1c2c([nH]n1-c1ccccc1)C=C(c1ccc(F)cc1)CC2c1ccc(Cl)cc1 (stereo not drawn)	2.59 µM	1.49 mg/mL	94%
O=c1c2c([nH]n1-c1ccc([N+](=O)[O-])cc1)C=C(c1ccc(F)cc1)CC2c1ccc(Cl)cc1 (stereo not drawn)	6.22 µM	0.95 mg/mL	84.4%
O=c1c2c([nH]n1-c1ccc([N+](=O)[O-])cc1[N+](=O)[O-])C=C(c1ccc(F)cc1)CC2c1ccc(Cl)cc1 (stereo not drawn)	7.83 µM	0.75 mg/mL	19.6%
O=c1oc2c(O)c(O)cc3c(=O)oc4c(O)c(O)cc1c4c23		0.105 mg/mL	
O=c1[nH][nH]c2c1C(c1ccc(Cl)cc1)CC(c1ccc(F)cc1)=C2 (stereo not drawn)	8.4 µM	1.2 mg/mL	17.9%
O=c1c2c([nH]n1-c1ccccc1)C=C(c1ccc(F)cc1)CC2c1ccc(Br)cc1 (stereo not drawn)	1.97 µM	0.802 mg/mL	96.8%
